From patent US11572337B2, “Antibacterial agents: arylalkylcarboxamido phloroglucinols” (Rutgers, The State University of New Jersey, priority 2018, dated 2023)
Converted amounts (≈) assume the structure as drawn.

What was measured:
[1] = biological target: S. aureus RNA polymerase core enzyme + S. aureus σA (Staphylococcus aureus (strain NCTC 8325 / PS 47), UniProt P47768+Q2G0N5); assay: Fluorescence-detected assay of inhibition of Staphylococcus aureus RNA polymerase; format: biochemical; details: T4 N25 promoter DNA, RiboGreen fluorescence, read-out: RNAP-inhibitory activity S. aureus RNAP IC50
Experimental: (§1) Fluorescence-detected RNA polymerase assays with E. coli RNA polymerase were performed by a modification of the procedure of Kuhlman et al., 2004 [Kuhlman, P., Duff, H. & Galant, A. (2004) A fluorescence-based assay for multisubunit DNA-dependent RNA polymerases. Anal. Biochem. 324, 183-190]. Reaction mixtures contained […]: […] test salt, 75 nM E. coli RNA polymerase σ^70 holoenzyme, 20 nM 384 bp DNA fragment containing the bacteriophage T4 N25 promoter, 100 μM ATP, 100 μM GTP, 100 μM UTP, 100 μM CTP, 50 mM Tris-HCl, pH 8.0, 100 mM KCl, 10 mM MgCl2, 1 mM DTT, 10 μg/ml bovine serum albumin, and 5.5% glycerol. Reaction components other than DNA and NTPs were pre-incubated for 10 min at 37° C. Reactions were carried out by addition of DNA and incubation for 5 min at 37° C., followed by addition of NTPs and incubation for 60 min at 37° C. DNA was removed by addition of 1 μl 5 mM CaCl2 and 2 U DNaseI (Ambion, Inc.), followed by incubation for 90 min at 37° C. RNA was quantified by addition of 100 μI RiboGreen RNA Quantitation Reagent (Invitrogen, Inc.; 1:500 dilution in Tris-HCl, pH 8.0, 1 mM EDTA), followed by incubation for 10 min at 25° C., followed by measurement of fluorescence intensity [excitation wavelength=485 nm and emission wavelength=535 nm; QuantaMaster QM1 spectrofluorometer (PTI, Inc.)]. IC50 is defined as the concentration of inhibitor resulting in 50% inhibition of RNA polymerase activity.
Fluorescence-detected RNA polymerase assays with S. aureus RNA polymerase were performed as in Example 2.1, using reaction mixtures containing (20 μl): 0-100 nM test salt, 75 nM S. aureus RNA polymerase core enzyme, 300 nM S. aureus σ^A, 20 nM 384 bp DNA fragment containing the bacteriophage T4 N25 promoter, 100 μM ATP, 100 μM GTP, 100 μM UTP, 100 μM CTP, 40 mM Tris-HCl, pH 8.0, 80 mM NaCl, 5 mM MgCl2, 2.5 mM DTT, and 12.7% glycerol. IC50 is defined as the concentration of inhibitor resulting in 50% inhibition of RNA polymerase activity.

[2] = test system: methicillin-resistant Staphylococcus aureus (MRSA) strain BAA-1707 (USA-400, MW2); assay: Antibacterial efficacy in mouse model of Staphylococcus aureus systemic infection (peritonitis model); details: female Swiss Webster mice, intravenous injection 0 h post-infection, dose resulting in 50% survival at 72 h (probit), read-out: in vivo antibacterial activity mouse MRSA peritonitis ED50
Experimental: Female Swiss Webster mice ([…]) were experimentally infected by intraperitoneal administration of 1×10^7 colony forming units of methicillin-resistant Staphylococcus aureus (MRSA) strain BAA-1707 (USA-400, MW2) in 5% hog gastric mucin. Test compounds in vehicle (5% dimethylacetamide and 4% cremophor EL in 10 mM sodium phosphate, pH 8), positive control (linezolid in vehicle), and negative control (vehicle only), were administered by intravenous injection into a tail vein (200 μl) 0 h post-infection. Identities of test compounds and controls were blinded from personnel performing injections and monitoring survival. The protective dose 50 (PD50) was defined as the test-compound dose resulting in 50% survival at 72 h (calculated using the probit method).

[3] = test system: Staphylococcus aureus ATCC 12600; assay: Inhibition of growth of Staphylococcus aureus (spiral gradient endpoint MIC assay); format: cell-based; details: ATCC12600, Mueller-Hinton II cation-adjusted agar, 16 h at 37° C., read-out: in vitro antibacterial activity S. aureus ATCC12600 MIC
From the text: Minimum inhibitory concentrations (MICs for Staphylococcus aureus ATCC 12600 were quantified using spiral gradient endpoint assays, essentially as described [Wallace, A. and Corkill, J. (1989) Application of the spiral plating method to study antimicrobial action. J. Microbiol. Meths. 10, 303-310; Paton, J., Holt, A., and Bywater, M. (1990) Measurement of MICs of antibacterial agents by spiral gradient endpoint compared with conventional dilution methods. Int. I Exp. Clin. Chemother. 3, 31-38; Schalkowsky S. (1994) Measures of susceptibility from a spiral gradient of drug concentrations. Adv. Exp. Med. Biol. 349, 107-120]. Assays employed exponential-gradient plates containing 150 mm×4 mm Mueller-Hinton II cation-adjusted agar and 0.4-100 μg/ml of test salt. Plates were prepared using an Autoplate 4000 spiral plater (Spiral Biotech, Inc.). Saturated overnight cultures were swabbed radially onto plates, and plates were incubated for 16 h at 37° C. For each culture, the streak length was measured using a clear plastic template (Spiral Biotech, Inc.), the test-salt concentration at the streak endpoint was calculated using the program SGE (Spiral Biotech, Inc.), and the MIC was defined as the calculated test-salt concentration at the streak endpoint.

[4] = biological target: E. coli RNA polymerase σ70 holoenzyme (Escherichia coli (strain K12), UniProt P0A8T7+P0A8V2); assay: Fluorescence-detected assay of inhibition of Escherichia coli RNA polymerase; format: biochemical; details: T4 N25 promoter DNA, RiboGreen fluorescence, read-out: RNAP-inhibitory activity E. coli RNAP IC50
Experimental: as §1

SMILES | IC50 [1] [µM] | ED50 [2] [mg/kg] | MIC [3] [µg/mL] | IC50 [4] [µM]
O=C(NCCc1ccc(Oc2ccccc2)cc1)c1c(O)cc(O)cc1O [Compound 0MTK148, 2,4,6-trihydroxy-N-(4-phenoxyphenethyl)benzamide] | 3.9 | 2.5 | 19 (≈ 52 µM) | 0.8
CCC1=C(O)C(CC)(CC)C(=O)C(C(=O)NCCc2ccc(Oc3ccc(F)cc3)cc2)=C1O [Compound 3RKHTK161, 3,5,5-triethyl-N-(4-(4-fluorophenoxy)phenethyl)-2,4-dihydroxy-6-oxocyclohexa-1,3-dienecarboxamide] | 13 | – | 2.8 (≈ 5.99 µM) | 3.3
